PMC9404985, “Development of Dicationic Bisguanidine-Arylfuran Derivatives as Potent Agents against Gram-Negative Bacteria” (Antibiotics, 2022)

Key:
[1] = system: Escherichia coli CCUG # 17620; test: MIC of established antibiotics, micro-broth dilution; details: CCUG17620, read-out: MIC Escherichia coli CCUG 17620
[2] = system: Escherichia coli CCUG # 67180; test: as above; details: CCUG67180, read-out: MIC Escherichia coli CCUG 67180
[3] = system: Klebsiella pneumoniae CCUG # 225T; test: as above; details: read-out: MIC Klebsiella pneumoniae CCUG 225T
[4] = system: Klebsiella pneumoniae CCUG # 58547; test: as above; details: CCUG58547, read-out: MIC Klebsiella pneumoniae CCUG 58547
[5] = system: Pseudomonas aeruginosa CCUG # 17619; test: as above; details: CCUG17619, read-out: MIC Pseudomonas aeruginosa CCUG 17619
[6] = system: Pseudomonas aeruginosa CCUG # 59347; test: as above; details: CCUG59347, read-out: MIC Pseudomonas aeruginosa CCUG 59347
[7] = system: Acinetobacter baumannii CCUG # 57250; test: as above; details: CCUG57250, read-out: MIC Acinetobacter baumannii CCUG 57250
[8] = system: Acinetobacter baumannii CCUG # 57035; test: as above; details: CCUG57035, read-out: MIC Acinetobacter baumannii CCUG 57035
[9] = system: Enterobacter hormaechei CCUG # 58962; test: as above; details: CCUG58962, read-out: MIC Enterobacter hormaechei CCUG 58962
[10] = Cytotoxicity assay (PrestoBlue) MCF-7; format: cell-based; details: human, MCF-7 cells (breast cancer cell line), 24 h incubation
Experimental: (§1) The cytotoxicity levels of all compounds were evaluated against human Michigan Cancer Foundation-7 (MCF-7) and Hepatoma G2 cell line (HepG2) cell lines. MCF-7 is an extensively characterized breast cancer cell line isolated in 1970 [41], while HepG2 cells were derived from a hepatoma in 1975 [42]. Both cell lines grow robustly during in vitro culture and have been widely used for cytotoxicity testing. Cells of hepatic origin, such as HepG2, are of particular relevance for toxicity studies as many drugs accumulate in the liver during metabolic conversion. Cells were grown in Dulbecco’s Modified Eagle Medium supplemented with 10% fetal calf serum and kept in exponential growth, as previously reported. Before the assay, cells were reseeded into 96-well microtiter plates at a density allowing continued exponential growth and let to settle for 24 h. The compounds were added from a stock solution in DMSO, for a final concentration of 0.3% v/v of the solvent in the culture medium. After 24 h of incubation in presence of the compound, cell viability was assayed using PrestoBlue Cell Viability Reagent (resazurin-based solution, ThermoFisher, Waltham, MA, USA) according to the manufacturer’s instructions. […] Each assay contained a DMSO control at the equivalent starting concentration, positive control (uninhibited cell growth) and negative control (cell medium only). Survival was expressed as percentage of the solvent-only control. […] The Selectivity Index (SI) for each compound and bacterial strain was calculated as the ratio between the mean of the EC50 values for the two human cell lines and the EC50 for the bacterial strain in question ((EC50 MCF-7 + EC50 HepG2)/2)/EC50 bacterial strain).

[11] = Cytotoxicity assay (PrestoBlue) HepG2; format: cell-based; details: human, HepG2 cells (hepatoma cell line), 24 h incubation
Experimental: as §1

[12] = system: B. subtilis (NBRC/ATCC #111470); test: Antibacterial resazurin assay, laboratory strain; details: for EC50 / EC90: Bacillus subtilis, ATCC111470, 18 h; for EC50: read-out: Bsu EC50; for EC90: read-out: Bsu EC90; for Selectivity index B. subtilis: mean of MCF-7 and HepG2 EC50 over bacterial EC50, laboratory strain
[13] = system: E. coli MG1655 (CGSC #6300); test: Antibacterial resazurin assay, laboratory strain; details: for EC50 / EC90: Escherichia coli, MG1655, 18 h; for EC50: read-out: Eco EC50; for EC90: read-out: Eco EC90; for Selectivity index E. coli: mean of MCF-7 and HepG2 EC50 over bacterial EC50, laboratory strain
[14] = system: P. putida (NBRC/ATCC #100650); test: Antibacterial resazurin assay, laboratory strain; details: for EC50 / EC90: Pseudomonas putida, ATCC100650, 18 h; for EC50: read-out: Ppu EC50, laboratory strain, 18 h, 37 °C, AlamarBlue; for EC90: read-out: Ppu EC90; for Selectivity index P. putida: mean of MCF-7 and HepG2 EC50 over bacterial EC50, laboratory strain
[15] = system: P. carotovorum (NBRC/ATCC #3380); test: Antibacterial resazurin assay, laboratory strain; details: for EC50 / EC90: Pectobacterium carotovorum, ATCC3380, 18 h; for EC50: read-out: Pcar EC50, laboratory strain, 18 h, 37 °C, AlamarBlue; for EC90: read-out: Pcar EC90; for Selectivity index P. carotovorum: mean of MCF-7 and HepG2 EC50 over bacterial EC50, laboratory strain
[16] = system: P. caledonica (NBRC/ATCC #102488); test: Antibacterial resazurin assay, laboratory strain; details: for EC50 / EC90: Paraburkholderia caledonica, ATCC102488, 18 h; for EC50: read-out: Pcal EC50; for EC90: read-out: Pcal EC90; for Selectivity index P. caledonica: mean of MCF-7 and HepG2 EC50 over bacterial EC50, laboratory strain

Row | Structure (SMILES) | EC50 at 24 h [10] [µM] | EC50 at 24 h [11] [µM] | EC50 [12] [µM] | EC90 [12] [µM] | EC50 [13] [µM] | EC90 [13] [µM] | Selectivity index E. coli [13] | EC50 [14] [µM] | EC90 [14] [µM] | Selectivity index P. putida [14] | EC50 [15] [µM] | EC90 [15] [µM] | Selectivity index P. carotovorum [15] | EC50 [16] [µM] | EC90 [16] [µM] | Selectivity index B. subtilis [12] | Selectivity index P. caledonica [16] | other results
1 | O=C(O)c1cn(C2CC2)c2cc(N3CCNCC3)c(F)cc2c1=O [Ciprofloxacin] |  |  |  |  |  |  |  |  |  |  |  |  |  |  |  |  |  | MIC [1]: 0.025 µM; MIC [2]: 190 µM; MIC [3]: 0.18 µM; MIC [4]: 190 µM; MIC [5]: 1.5 to 3 µM; MIC [6]: 100 µM; MIC [7]: 200 µM; MIC [8]: 200 µM; MIC [9]: 0.1 µM
2 | N=C(N)Nc1ccc(-c2ccc(-c3ccc(NC(=N)N)cc3C(F)(F)F)o2)c(C(F)(F)F)c1 [Compound 5, 2,5-Bis(4-guanidino-2-trifluoromethylphenyl)furan] | 23.2 | 69 | > 300 | > 300 | 29.4 | 59.1 | 1.6 | 290 | 319 | 0.2 | 185 | 233 | 0.2 | > 300 | > 300 |  |  | 
3 | N#Cc1cc(NC(=N)N)ccc1-c1ccc(-c2ccc(NC(=N)N)cc2C#N)o1 [Compound 7, 2,5-Bis(2-cyano-4-guanidinophenyl)furan] | 46 | 78.9 | 146 | 562 | 59.3 | 350 | 1.1 | 24.5 | 51.5 | 2.5 | 212 | 268 | 0.3 | > 300 | > 300 | 0.4 |  | 
4 | Cc1nc(NC(=N)N)ccc1-c1ccc(-c2ccc(NC(=N)N)nc2C)o1 [Compound 9, 2,5-Bis(6-guanidino-2-methylpyridin-3-yl)furan] | > 1000 | > 100 | 154 | 246 | 547 | > 900 | 1.0 | > 300 | > 300 |  | > 300 | > 300 |  | 84.8 | 213 | 3.6 | 6.5 | 
5 | Nc1c(Nc2ccc(-c3ccc(-c4ccc(Nc5c(N)c(=O)c5=O)cc4Cl)o3)c(Cl)c2)c(=O)c1=O [Compound 11, 2,5-Bis(2-chloro-4-((3,4-dioxo-2-(amino)cyclobut-1-en-1-yl)amino)phenyl)furan] | 508 | 183 | > 300 | > 300 | > 300 | > 300 |  | > 300 | > 300 |  | > 300 | > 300 |  | 19 | 60.1 |  | 18.2 | 
6 | Nc1c(Nc2ccc(-c3ccc(-c4ccc(Nc5c(N)c(=O)c5=O)cc4)o3)cc2)c(=O)c1=O [Compound 12, 2,5-Bis(4-((3,4-dioxo-2-(amino)cyclobut-1-en-1-yl)amino)phenyl)furan] | > 1000 | > 1000 | > 300 | > 300 | > 300 | > 300 |  | > 300 | > 300 |  | > 300 | > 300 |  | > 300 | > 300 |  |  | 
7 | Cc1cc(Nc2c(N)c(=O)c2=O)ccc1-c1ccc(-c2ccc(Nc3c(N)c(=O)c3=O)cc2C)o1 [Compound 13, 2,5-Bis(2-methyl-4-((3,4-dioxo-2-(amino)cyclobut-1-en-1-yl)amino)phenyl)furan] | > 1000 | 137 | > 300 | > 300 | > 300 | > 300 |  | > 300 | > 300 |  | > 300 | > 300 |  | > 300 | > 300 |  |  | 
8 | Nc1c(Nc2ccc(-c3ccc(-c4ccc(Nc5c(N)c(=O)c5=O)cc4C(F)(F)F)o3)c(C(F)(F)F)c2)c(=O)c1=O [Compound 14, 2,5-Bis(2-trifluoromethyl-4-((3,4-dioxo-2-(amino)cyclobut-1-en-1-yl)amino)phenyl)furan] | 173 | 185 | > 300 | > 300 | > 300 | > 300 |  | > 300 | > 300 |  | > 300 | > 300 |  | 90.4 | 305 |  | 2.0 | 
9 | N=C(N)Nc1ccc2c(c1)CCN2C(=O)c1ccc(-c2ccc(NC(=N)N)cc2C(F)(F)F)o1 [Compound 18, (5-(2-trifluoromethy-4-guanidinophenyl)furan-2-yl)(5-guanidinoindolin-1-yl)methanone] | 123 | 508 | 9.6 | 13.6 | 42.3 | 58.3 | 7.5 | 10.1 | 22.2 | 31.3 | 94.6 | 120 | 3.3 | 12.6 | 176 | 32.9 | 25.1 | 
10 | N=C(N)Nc1ccc2c(c1)CCN2C(=O)c1ccc(-c2ccccc2Cl)o1 [Compound 19, (5-(2-chlorophenyl)furan-2-yl)(5-guanidinoindolin-1-yl)methanone] | 26.4 | 24.8 | 14.5 | 25.9 | 0.5 | 2.5 | 51.2 | 75 | 84.9 | 0.3 | 87.1 | 130 | 0.3 | 96.3 | 287 | 1.8 | 0.3 | 
11 | N=C(N)Nc1ccc(-c2ccc(C(=O)N3CCc4ccccc43)o2)c(Cl)c1 [Compound 20, (5-(2-chloro-4-guanidinophenyl)furan-2-yl)(indolin-1-yl)methanone] | 37.8 | 28.5 | 24.5 | 38.4 | 61.7 | 106 | 0.5 | > 300 | > 300 |  | 159 | 187 | 0.2 | 129 | > 300 | 1.4 | 0.3 | 
